Laboratory results reported in PubChem BioAssay AID1963863 (Molecular Pharmacology Branch, DTP, NCI, 2024).

System: 931267-113-T-J1-PDC KRAS spheroid with HUVEC/MSC, viability
Experiment: Anticancer human tumor 931267-113-T-J1-PDC patient-derived colon adenocarcinoma cell line growth inhibition [KRAS2]
Settings: for IC50: curve of first compound; for viability, T/C: stronger effect = lower value
Method in brief: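 KRAS-mutant tumor cells were grown as spheroids with HUVEC endothelial cells and human MSCs as stroma. Targeted agents were tested alone and with KRAS pathway inhibitors. Doses started at or near clinical Cmax, or 10 microM, descending half-log.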

[1] = second compound 0.1 µM, first compound 0.0316 µM
[2] = second compound 0.1 µM, first compound 0.1 µM
[3] = second compound 0.1 µM, first compound 0.316 µM
[4] = second compound 0.1 µM, first compound 1 µM
[5] = second compound 0.1 µM, first compound 3.16 µM
[6] = second compound 0.1 µM, first compound 10 µM
[7] = second compound 0.316 µM, first compound 0.0316 µM
[8] = second compound 0.316 µM, first compound 0.1 µM
[9] = second compound 0.316 µM, first compound 0.316 µM
[10] = second compound 0.316 µM, first compound 1 µM
[11] = second compound 0.316 µM, first compound 3.16 µM
[12] = second compound 0.316 µM, first compound 10 µM
[13] = second compound 1 µM, first compound 0.0316 µM
[14] = second compound 1 µM, first compound 0.1 µM
[15] = second compound 1 µM, first compound 0.316 µM
[16] = second compound 1 µM, first compound 1 µM
[17] = second compound 1 µM, first compound 3.16 µM
[18] = second compound 1 µM, first compound 10 µM
[19] = second compound 3.16 µM, first compound 0.0316 µM
[20] = second compound 3.16 µM, first compound 0.1 µM
[21] = second compound 3.16 µM, first compound 0.316 µM
[22] = second compound 3.16 µM, first compound 1 µM
[23] = second compound 3.16 µM, first compound 3.16 µM
[24] = second compound 3.16 µM, first compound 10 µM
[25] = second compound 10 µM, first compound 0.0316 µM
[26] = second compound 10 µM, first compound 0.1 µM
[27] = second compound 10 µM, first compound 0.316 µM
[28] = second compound 10 µM, first compound 1 µM
[29] = second compound 10 µM, first compound 3.16 µM
[30] = second compound 10 µM, first compound 10 µM
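Note: compound exposure lasted 7 days before the readout.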
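Throughout, for viability, T/C: 100% = DMSO vehicle control viability.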

SMILES: COc1cc(Nc2ncc3c(n2)-c2ccc(Cl)cc2C(c2c(F)cccc2OC)=NC3)ccc1C(=O)O + CNCc1ccccc1-c1csc(C(C)Nc2nc(C)nc3cc(OC)c(OC)cc23)c1
- IC50 (second compound 0.1 µM): > 10 µM
- IC50 (second compound 0.316 µM): > 10 µM
- IC50 (second compound 1 µM): < 0.0316 µM
- IC50 (second compound 3.16 µM): < 0.0316 µM
- IC50 (second compound 10 µM): < 0.0316 µM
- viability, T/C [1]: 78.9%
- viability, T/C [2]: 87%
- viability, T/C [3]: 85.5%
- viability, T/C [4]: 72.3%
- viability, T/C [5]: 87.4%
- viability, T/C [6]: 62.1%
- viability, T/C [7]: 122%
- viability, T/C [8]: 106%
- viability, T/C [9]: 154%
- viability, T/C [10]: 86.6%
- viability, T/C [11]: 77.5%
- viability, T/C [12]: 64.2%
- viability, T/C [13]: 18.7%
- viability, T/C [14]: 36.5%
- viability, T/C [15]: 18.4%
- viability, T/C [16]: 26%
- viability, T/C [17]: 25.9%
- viability, T/C [18]: 25.6%
- viability, T/C [19]: 0.23%
- viability, T/C [20]: 0.31%
- viability, T/C [21]: 0.33%
- viability, T/C [22]: 0.21%
- viability, T/C [23]: 0.2%
- viability, T/C [24]: 0.35%
- viability, T/C [25]: 0.26%
- viability, T/C [26]: 0.16%
- viability, T/C [27]: 0.23%
- viability, T/C [28]: 0.16%
- viability, T/C [29]: 0.16%
- viability, T/C [30]: 0.31%

SMILES: COc1cc2nccc(Oc3ccc(NC(=O)C4(C(=O)Nc5ccc(F)cc5)CC4)cc3)c2cc1OC + CNCc1ccccc1-c1csc(C(C)Nc2nc(C)nc3cc(OC)c(OC)cc23)c1
- IC50 (second compound 0.1 µM): 3.21 µM
- IC50 (second compound 0.316 µM): 1.77 µM
- IC50 (second compound 1 µM): < 0.0316 µM
- IC50 (second compound 3.16 µM): < 0.0316 µM
- IC50 (second compound 10 µM): < 0.0316 µM
- viability, T/C [1]: 86.3%
- viability, T/C [2]: 93.1%
- viability, T/C [3]: 107%
- viability, T/C [4]: 91%
- viability, T/C [5]: 50.1%
- viability, T/C [6]: 48.1%
- viability, T/C [7]: 85.5%
- viability, T/C [8]: 86.8%
- viability, T/C [9]: 81.9%
- viability, T/C [10]: 72.3%
- viability, T/C [11]: 27.2%
- viability, T/C [12]: 21.9%
- viability, T/C [13]: 45.3%
- viability, T/C [14]: 52.9%
- viability, T/C [15]: 39.5%
- viability, T/C [16]: 25.4%
- viability, T/C [17]: 0.22%
- viability, T/C [18]: 1.76%
- viability, T/C [19]: 0.08%
- viability, T/C [20]: 0.19%
- viability, T/C [21]: 0.35%
- viability, T/C [22]: 0.07%
- viability, T/C [23]: 0.04%
- viability, T/C [24]: 0.2%
- viability, T/C [25]: 0.14%
- viability, T/C [26]: 0.17%
- viability, T/C [27]: 0.13%
- viability, T/C [28]: 0.12%
- viability, T/C [29]: 0.13%
- viability, T/C [30]: 0.21%

SMILES: O=C(c1cc(Cc2n[nH]c(=O)c3ccccc23)ccc1F)N1CCN(C(=O)C2CC2)CC1 + CNCc1ccccc1-c1csc(C(C)Nc2nc(C)nc3cc(OC)c(OC)cc23)c1
- IC50 (second compound 0.1 µM): > 10 µM
- IC50 (second compound 0.316 µM): > 10 µM
- IC50 (second compound 1 µM): > 10 µM
- IC50 (second compound 3.16 µM): < 0.0316 µM
- IC50 (second compound 10 µM): < 0.0316 µM
- viability, T/C [1]: 98.8%
- viability, T/C [2]: 100%
- viability, T/C [3]: 86.8%
- viability, T/C [4]: 85.9%
- viability, T/C [5]: 61.9%
- viability, T/C [6]: 72.2%
- viability, T/C [7]: 106%
- viability, T/C [8]: 88.5%
- viability, T/C [9]: 98%
- viability, T/C [10]: 88.5%
- viability, T/C [11]: 82.7%
- viability, T/C [12]: 80%
- viability, T/C [13]: 114%
- viability, T/C [14]: 113%
- viability, T/C [15]: 108%
- viability, T/C [16]: 96.6%
- viability, T/C [17]: 112%
- viability, T/C [18]: 75.6%
- viability, T/C [19]: 0.55%
- viability, T/C [20]: 0.34%
- viability, T/C [21]: 0.4%
- viability, T/C [22]: 0.47%
- viability, T/C [23]: 0.43%
- viability, T/C [24]: 0.38%
- viability, T/C [25]: 0.16%
- viability, T/C [26]: 0.2%
- viability, T/C [27]: 0.21%
- viability, T/C [28]: 0.61%
- viability, T/C [29]: 0.27%
- viability, T/C [30]: 0.23%
